These results are taken from US5665718A, “Imidazodiazepines” (Hoffmann-La Roche Inc., priority 1994, dated 1997).

Data set [1] in a line: Fatalities after i.v. administration to rats. The note with it: 32 and 100 mg/kg i.v. Format: in vivo.
Data set [2] in a line: Fatalities after i.v. administration to mice. Format: in vivo. Conditions: 32 and 100 mg/kg i.v.
The nature of data set [3]: Rotating rod test (sedative/muscle relaxant properties), i.v. The data set is classed as in vivo. The note with it: Mus musculus, iv, mice. How it is done:
The sedative/muscle relaxant properties of the compounds of formula I in accordance with the invention can be determined, for example, in the rotating rod test. Mice weighing 19-21 g are used for this test. They have free access to feed and drinking water up to 1 hour before the beginning of the test. They are brought into the test laboratory at least 30 minutes before the test. In the rotating rod test the animals are placed on a horizontally arranged, smooth metal rod having a diameter of 3 cm, which is rotated at 2 revolutions per minute. Initially, the animals are given the opportunity of familiarizing themselves with the test situation for 30 seconds. Subsequently, those animals which succeed in remaining on the rod for at least 1 minute are selected. These animals are then given the test preparations intravenously in different dosages. At various points in time it is then determined whether the animals are able to remain on the rod for a minimum period (minimum period: 10 seconds; from 5 minutes after administration: 1 minute.). That dosages at which 50% of the animals are capable of remaining on the rod (ED 50) is determined.

Data set [4] has as its target central benzodiazepine receptors. The data set is described as follows: Affinity to central benzodiazepine receptors: inhibition of binding of tritiated flumazenil in rat cortex. Conditions: in vitro. How it is done:
The affinity of compounds of general formula I to the central benzodiazepine receptors was established in vitro according to the methods described in Nature 294, 763-765 (1981) and J. Neurochemistry 37, 714-722 (1981). According to these methods, the inhibition of the binding of tritiated flumazenil to the specific benzodiazepine receptors in the cortex of rats by the respective test substances is determined. The IC50 ("50% inhibiting concentration") denotes that concentration of the respective test substance which brings about a 50 per cent inhibition of the specific binding of tritiated flumazenil to the specific benzodiazepine receptors in the cortex of rats.

The mark [5] stands for this setting: 15 s, 15 sec after administration, read-out: Rotating rod test, ED50, 15 sec after administration.
The mark [6] stands for this setting: 0.5 min, 30 sec after administration, read-out: Rotating rod test, ED50, 30 sec after administration.
Setting [7] is: 1 min, 60 sec after administration, read-out: Rotating rod test, ED50, 60 sec after administration.
The mark [8] stands for this setting: 2 min, 2 min after administration, read-out: Rotating rod test, ED50, 2 min after administration.
Setting [9] is: 5 min, 5 min after administration, read-out: Rotating rod test, ED50, 5 min after administration.
Setting [10] is: 0.25 h, 15 min after administration, read-out: Rotating rod test, ED50, 15 min after administration.
Setting [11] is: 0.5 h, 30 min after administration, read-out: Rotating rod test, ED50, 30 min after administration.
Where [12] appears, read: 1 h, 60 min after administration, read-out: Rotating rod test, ED50, 60 min after administration.

Where two headings read alike, the source gives them in different places.

What is called IC50 is the concentration at which inhibition is half-maximal. A lower IC50 goes with greater potency. For `C=CCN(CC=C)Cc1nc(-c2ncn3c2[C@@H]2CCN2C(=O)c2c-3ccc(F)c2Cl)no1` [E, (S)-1-(5-diallylaminomethyl-1,2,4-oxadiazol-3-yl)-8-chloro-7-fluoro-12,12a-dihydro-9H,11H-azeto[2,1-c]imidazo[1,5-a][1,4]benzodiazepin-9-one], the fatalities entry in data set [1] and in data set [2] was “without fatalities occurring” throughout. The ED50 in data set [3] (setting [5]) amounted to 0.2 mg/kg; in data set [3] (setting [6]) it was 0.3 mg/kg; in data set [3] (setting [7]), 0.3 mg/kg; in data set [3] (setting [8]), 0.4 mg/kg; in data set [3] (setting [9]) it was 0.8 mg/kg; in data set [3] (setting [10]) it was 3.9 mg/kg. Further, the ED50 in data set [3] (setting [11]) was at least 10 mg/kg; in data set [3] (setting [12]), over 10 mg/kg. In data set [4], the IC50 was found to be 10 nM.

With `CCCN(CCC)Cc1nc(-c2ncn3c2[C@@H]2CCN2C(=O)c2c(Cl)cccc2-3)no1` [A, (S)-8-chloro-1-(5-dipropylaminomethyl-1,2,4-oxadiazol-3-yl)-12,12a-dihydro-9H,11H-azeto[2,1-c]imidazo[1,5-a][1,4]benzodiazepin-9-one], the fatalities entry in data set [1] and in data set [2] was “without fatalities occurring” throughout. Further, the ED50 was found to be 0.3 mg/kg in data set [3] (setting [5]); 0.3 mg/kg in data set [3] (setting [6]); 0.7 mg/kg in data set [3] (setting [7]); 0.8 mg/kg in data set [3] (setting [8]); 1.4 mg/kg in data set [3] (setting [9]); 2.1 mg/kg in data set [3] (setting [10]). The ED50 was 7.3 mg/kg in data set [3] (setting [11]) and over 10 mg/kg in data set [3] (setting [12]). This molecule also showed an IC50 in data set [4] of 13 nM.

Consider `CCCN(CCC)Cc1nc(-c2ncn3c2CN(C)C(=O)c2cc(F)ccc2-3)no1` [D, 3-(5-dipropylaminomethyl-1,2,4-oxadiazol-3-yl)-8-fluoro-5-methyl-5,6-dihydro-4H-imidazo[1,5-a][1,4]benzodiazepin-6-one], for which the fatalities entry in data set [1] and in data set [2] was “without fatalities occurring” throughout. Moreover, the ED50 stood at 0.2 mg/kg in data set [3] (setting [5]); 0.2 mg/kg in data set [3] (setting [6]); 0.3 mg/kg in data set [3] (setting [7]); 0.3 mg/kg in data set [3] (setting [8]); 0.8 mg/kg in data set [3] (setting [9]); 2.6 mg/kg in data set [3] (setting [10]). Further, the ED50 in data set [3] (setting [11]) and in data set [3] (setting [12]) was over 10 mg/kg each time. In data set [4], this molecule showed an IC50 of 3.3 nM.
